Entries after “also recorded” stand apart in the source; their conditions may differ.
Tests used:
Assay type in all cases: in vivo, mouse
[1] = system: adhesion formation in mice; assay: Adhesion induction with neutrophil/monocyte modulating treatments, adhesion score (Example 2); details: for adhesion formation (adhesion score), pre-treatment: treated 24 hours prior to adhesion induction
Description: (§1) Adhesion induction surgeries were done on wild type B6 (C57BL/6J (The Jackson Laboratory) mice aged 6-10 weeks. Mice were anesthetized by inhaled isoflurane until determined unconscious confirmed by toe-pinch test. The abdomen was disinfected with betadine and phosphate buffered saline (PBS). A left mid-clavicular incision was made in the skin running down the length of the mouse. A similar left-mid clavicular incision was made in the peritoneum running down the length of the peritoneum. The peritoneum was gently folded to the right and held down by a hemostat. A single, ischemic button was placed on the right half of the peritoneal wall by clamping a small (−5 mm diameter) piece of peritoneum and ligating the base with a 4-0 silk suture (Ethicon, 683G). Light abrasion on the button (24 times) and on the adjacent liver, cecum, and small and large bowels (7 times) was optionally performed (depending on the desired adhesion severity) with a surgical brush. Light brushing with fewer repetitions was performed to avoid pinpoint bleeding. The peritoneum was closed using 4-0 silk sutures and the skin was stapled closed (EZ Clips, 9 mm, Braintree Scientific Inc). Mice were allowed to recover on a heating pad and injected with 0.05-0.1 mg/kg of buprenorphine. Mice were followed closely and monitored daily for signs of morbidity for 7 days until euthanasia. Adhesed tissues were dissected, scored, and fixed in 2% paraformaldehyde overnight at 4 degrees.
Peritoneal washes from similar time points confirmed that increased numbers of neutrophils and macrophages enter the peritoneum.

[2] = system: adhesions in mice; assay: Pre-treatment 3 days prior to adhesion induction surgery, adhesion severity scale 0-5 (Example 3); details: pre-treated 3 days prior to surgery, evaluated 7 days post injury, versus PBS control
Description: as §1, with “Light abrasion on the button (24 times) and on the adjacent liver, cecum, and small and large bowels (7 times) was optionally performed (depending on the desired adhesion severity) with a surgical brush. Light brushing with fewer repetitions was performed to avoid pinpoint bleeding. The peritoneum was closed using 4-0 silk sutures and the skin was stapled closed (EZ Clips, 9 mm, Braintree Scientific Inc). Mice were allowed to recover on a heating pad and injected with 0.05-0.1 mg/kg of buprenorphine.” left out
Mice were pre-treated with either PLGA, thioglycollate, or PBS control 3 days prior to adhesion induction surgery as described in Example 1. Mice were evaluated 7 days post injury and evaluated on an adhesion severity scale from 0-5 for adhesions forming on the suture site (S) or the button (B). […]

[3] = system: adhesion formation in wild type C57BL/6J mice; assay: Adhesion induction (ischemic button) with HIF1A small molecule inhibitor treatment, adhesion scoring; details: for adhesion formation: C57BL/6J mice, cryptotanshinone 200 mg/kg, FM19G11 2 mg/kg, echinomycin 10 or 20 ug/kg, PX12 25 mg/kg, immediately after injury, 4 hours after, then every 24 hours for 7 days, scored after 7 days; for adhesion score in a majority of the treated mice: scale 0-5, PX12 n=5, echinomycin n=15, 7 days after induction
Description: as §1
In functional studies we assign a single score for an adhesion, based on the criteria detailed in the text above, taking into consideration both surface area contact and molecular makeup. […] We have observed adhesion areas with high surface area contact (a score of 3 or 4) with little or no collagen or macrophage involvement (F4/80-). Conversely, we have also observed adhesion areas with low surface area contact (a score of 2) with high collagen and macrophage infiltration. In these cases we will score adhesions based on surface area contact or number of organs involved, as we predict this is a more significant indicator of clinical outcome.
Adhesion induction surgeries were performed on 4-8 week old wild type B6 (C57BL/6J (The Jackson Laboratory) as previously described. 200 mg/kg of cryptotanshinone (Sigma Aldrich), 2 mg/kg of FM19G11 (Sigma Aldrich), 10 ug/kg or 20 ug/kg of echinomycin (Sigma Aldrich), or 25 mg/kg of PX12 (Sigma Aldrich) immediately after injury, 4 hours after injury, and every 24 hours subsequently for 7 days.
Adhesions were induced in wild type C57BL/6J mice using the method described above, with different intensity and scope of abrasions to induce a range of adhesion severity. These mice were allowed to recover for seven days before their adhesions were scored.
In our scheme, an adhesion with a score of 0 has no adhesion between two areas, with limited mesothelial thickening on the button (FIG. 3A). The area stains positive for MSLN and fibronectin (FIG. 3A). Mice with an adhesion score of 0 had no signs of morbidity and survived the 7 day recovery period (n=25). An adhesion score of 1 indicated a “string” adhesion, connecting the two adhesed areas with a light fibrous bridge (FIG. 3B). The string and surrounding areas were immunopositive for MSLN and fibronectin (FIG. 3B). Most mice with an adhesion score of 1 had no signs of morbidity and survived the 7 day recovery period (n=11).
All adhesions with scores of 2 or above involve a single direct contact between two tissues. […]

[4] = system: HIF1A; assay: Immunofluorescence staining of mesothelium surrounding buttons after inhibitor treatment; details: 7 days after induction and treatment; control adhesions positive for PDPN, MSLN and HIF1A
Method: Immunofluorescence studies were performed on frozen sections. Frozen sections were thawed at room temperature for ten minutes and washed in PBS twice. Slides were blocked in 5% serum for 30 minutes at room temperature. Sections were subsequently stained with primary antibodies against PDPN (1:100, mouse monoclonal, Abcam), MSLN (1:200, rabbit monoclonal, ABBIOTEC), fibronectin (1:100, rabbit monoclonal, Abcam), F4/80 (1:100, rat monoclonal, Abcam), CD31 (1:100, rabbit monoclonal, Abcam), pan-collagen (1:100, rabbit polyclonal, Abcam), WT1 (1:100, rabbit polyclonal, Abcam), CD44 (1:100, rabbit polyclonal, Abcam), HIF1A (1:100, mouse monoclonal), and S100A4 (1:100, rabbit polyclonal, Abcam), overnight at 4 degrees, and washed three times in PBS. Slides were stained were incubated with secondary antibodies conjugated to Alex Fluor 488, 594, or 647 for one to two hours at room temperature. Stains were washed once with PBST and three times with PBS before nuclear staining with Hoechst 33342 (Life Technologies), for two minutes and mounted with Fluoromount G (Southern Biotech).
To explore whether inhibiting the HIF1A pathway in vivo can prevent adhesion formation, we treated mice that had undergone adhesion induction with small molecular inhibitors against HIF1A or its immediate downstream cascade. […] Mice were euthanized after 7 days and their adhesions were imaged and scored.

[5] = system: HIF1A and mesothelial target genes in injured mesothelial cells; assay: RNA sequencing of sorted injured mesothelium after echinomycin treatment
Method: A modified adhesion induction surgery was done according to previously described procedures on wild type C57BL/6J (The Jackson Laboratory). Two ischemic buttons were placed on each side of the peritoneum and no abrasion of the button or abdominal organs was done. Mice were allowed to recover for 6, 12, or 24 hours and euthanized. Ischemic buttons were dissected by cutting the base and placed in dissociation media (DMEM (Life Technologies, 10565-042), 50 mg/ml collagenase IV (Worthington Biochemical), 20 uM CaCl2). Buttons were homogenized using a single edge blade (Razor Blade Company), and incubated in dissociation media for 30 minutes at 37 C. The subsequent cell suspension was filtered through a 100 um filter and spun and washed with 2% fetal bovine serum (FBS) in PBS. Cells were treated with 1 ml of ACK lysis buffer (Life Technologies) for 5 minutes at 4 C and spun and washed. Cells were blocked with 1% goat serum (Life Technologies) for 10 minutes and stained with anti-PDPN (BioLegend, 8.1.1, 1:100), anti-LYVE-1 (eBioscience, ALY-7, 1:100), anti-CD31 (eBioscience, 390, 1:100), and anti-CD45 (BioLegend, 30-F11, 1:100) for 30 minutes at 4 C. Cells were spun down, filtered, and resuspended in 200 µl of 2% FBS in PBS. Cells were run through a FACSAria (BD Bioscences) and PDPN+LYVE1-CD31-CD45- cells were sorted directly into 750 ul of Trizol LS (Life Technologies).
Total RNA from sorted mesothelial population was isolated using Trizol (ThermoFisher) as per manufacturer's recommendation and was facilitated by addition of linear polyacrylamide (Sigma) as a carrier during RNA precipitation. Purified total RNA was treated with 4 units of RQ1 RNase-free DNase (Promega) at 37° C. for 1 hour to remove trace amounts of genomic DNA. The DNase-treated total RNA was cleaned-up using RNeasy micro kit (QIAGEN). 10-50 ng of total RNA was used as input for cDNA preparation and amplification using Ovation RNA-Seq System V2 (NuGEN). Amplified cDNA was sheared using Covaris S2 (Covaris) using the following settings: total volume […], duty cycle 10%, intensity 5, cycle/burst 100, total time 2 min. The sheared cDNA was cleaned up using Agencourt Ampure XP (Beckman Coulter) to obtain cDNA fragments>=400 base pairs (bp). 500 ng of sheared and size-selected cDNA were used as input for library preparation using NEBNext Ultra DNA Library Prep Kit for Illumina (New England BioLabs) as per manufacturer's recommendations. Resulting libraries (fragment distribution: 300-700 bp; peak 500-550 bp) were sequenced using HiSeq 4000 (Illumina) to obtain 2×150 base pair paired-end reads. The reads obtained were trimmed for base call quality and the presence of adapter sequences using Skewer (ref). High quality reads thus obtained were aligned to mouse genome using OLego (ref) and the levels of expressed mRNAs were estimated using cuffdiff2 (ref) and represented as fragments per kilo-base per million mapped reads (FPKM).
To broadly determine the causative transcriptional changes in injured mesothelial cells downstream of HIF1A inhibition, we treated 10 wild type C57BL/6J mice with (20 ug/kg) of echinomycin prior to and immediately following adhesion induction via placement of four ischemic buttons. Using a similar method as outlined above, we isolated the damaged mesothelium from buttons, sorted and isolated their RNA for sequencing.

## thioglycollate
[1]
  adhesion formation (adhesion score), pre-treatment: diminished adhesions
[2]
  severity of adhesions at the button (B): significantly reduced severity of adhesions
  severity of adhesions at the suture site (S): significantly reduced severity of adhesions

## CS[C@H]1SC[C@H]2C(=O)N(C)[C@@H](C(C)C)C(=O)OC[C@@H](NC(=O)c3cnc4ccccc4n3)C(=O)N[C@@H](C)C(=O)N(C)[C@@H]1C(=O)N(C)[C@@H](C(C)C)C(=O)OC[C@@H](NC(=O)c1cnc3ccccc3n1)C(=O)N[C@@H](C)C(=O)N2C [echinomycin]
[3]
  adhesion formation: significantly reduced; also recorded: dramatic decrease in adhesion formation and frequency; also recorded: significant decreases in adhesion formation; also recorded: significantly reduces the formation of adhesions
  adhesion score in a majority of the treated mice: 0
[4]
  HIF1A immunofluorescence staining of mesothelium surrounding the buttons / adhesions: stained with only MSLN and PDPN
[5]; 20 ug/kg echinomycin
  ITGAM, ITGB1, and ITGB2 gene expression after HIF1A inhibition: little difference in gene expression
  PDPN, MSLN, and S100A4 expression after treatment: increased in expression
  UPK1B and WT1 expression levels after treatment: dropped significantly
  number of genes normally upregulated along the 24 hour time course that were decreased with HIF1A inhibition: over 200 genes
  number of genes with little or decreased expression during the 24 hour time course that were upregulated by HIF1A inhibition: over 600 genes
[5]; 20 ug/kg echinomycin prior to and immediately following adhesion induction
  expression of known HIF1A targets VEGFb and transferrin (TRF): downregulated

## CCC(C)SSc1ncc[nH]1 (stereo not shown) [PX12]
[3]
  adhesion formation: significantly reduced; also recorded: dramatic decrease in adhesion formation and frequency; also recorded: significant decreases in adhesion formation; also recorded: reduce adhesion formation
  adhesion score in a majority of the treated mice: 0
[4]
  HIF1A immunofluorescence staining of mesothelium surrounding the buttons / adhesions: stained with only MSLN and PDPN

## Catalase
[1]
  adhesion formation (adhesion score), pre-treatment: worsens adhesion formation

## Cc1ccc(C(=O)COC(=O)c2cccc(NC(=O)c3ccc([N+](=O)[O-])cc3[N+](=O)[O-])c2)cc1 [FM19G11]
[3]
  adhesion formation: reduce adhesion formation

## MCP-1: monocyte chemoattractant protein-1, a known monocyte chemoattractant
[1]; MCP-1 administration (e.g., intraperitoneally) in animal models
  side effects in animals: little or no side effects
[1]; treated for three days following adhesion induction surgery
  adhesion formation (adhesion score), post-surgery treatment: diminish adhesion formation; also recorded: substantial reduction in adhesion grades
